Counter-ions that a name gives are not always drawn.
Legend:
Type in all cases: in vivo
[1] = system: PD-LID rat model; assay: ON score and ON time without dyskinesia in PD-LID rat model
Method: To make a PD-LID rat model, a mixture of levodopa methyl ester hydrochloride (6 mg/kg; Sigma-Aldrich) dissolved in saline and benserazide hydrochloride (15 mg/kg; Sigma-Aldrich) (hereinafter, also referred to as “levodopa containing solution”) was intraperitoneally administered once daily to 6-OHDA-lesioned rats. The levodopa containing solution was repeatedly administered for 3 weeks or longer to observe and evaluate the behavior. The behavior was observed and evaluated in a transparent acrylic cage for 1 minute every 20 minutes after 20 minutes from the intraperitoneal administration of the levodopa containing solution, up until after 3 hours from administration. […] Individuals with a total AIMs score of less than 10 were excluded from the test as not manifesting a dyskinesia-like symptom. The behavior was observed and evaluated before the drug evaluation date. […] For an indicator of dyskinesia behavior, the sum of the Limb AIMs, Axial AIMs, and Orolingual AIMs at each evaluation point was used as the AIMs score. For the rotational behavior (ON score), Locomotive behavior at each evaluation point was used as an indicator. […] For ON time without dyskinesia, the period during which the AIMs score is 0 and Locomotive behavior is 1 or greater at each evaluation point was added. Duration of action of levodopa without a dyskinesia symptom (ON time without dyskinesia) refers to the aggregate time with no dyskinesia during the antiparkinsonian action effective time, i.e., “ON-time”, and defined as the time during which the dyskinesia symptom (AIMs) score is 0 and the rotational behavior (Locomotive behavior) score is 1 or greater at each evaluation point after levodopa administration. […] After 5 minutes, a levodopa containing solution was intraperitoneally administered, and the behavior was observed and evaluated. The results in the drawings are indicated in terms of mean value±standard error. […] For evaluation of a tape agent, the abdominal regions of the rats were shaved prior to the evaluation date. […] After 4 hours from application, a levodopa containing solution was intraperitoneally administered to observe and evaluation the behavior. The results in the drawings are indicated in terms of mean value±standard error. Individuals with 50% or more of the tape agent coming off during the test were excluded from analysis.

[2] = system: PD-LID rat model; assay: Dyskinesia-like symptom (AIMs) score in PD-LID rat model; conditions: for total dyskinesia-like symptom (AIMs) score in 3 hours: levodopa 5 min later, vs solvent group
Method: To make a PD-LID rat model, a mixture of levodopa methyl ester hydrochloride (6 mg/kg; Sigma-Aldrich) dissolved in saline and benserazide hydrochloride (15 mg/kg; Sigma-Aldrich) (hereinafter, also referred to as “levodopa containing solution”) was intraperitoneally administered once daily to 6-OHDA-lesioned rats. The levodopa containing solution was repeatedly administered for 3 weeks or longer to observe and evaluate the behavior. The behavior was observed and evaluated in a transparent acrylic cage for 1 minute every 20 minutes after 20 minutes from the intraperitoneal administration of the levodopa containing solution, up until after 3 hours from administration. […] The sum of the scores for Limb AIMs, Axial AIMs, and Orolingual AIMs in 3 hours was used as the total dyskinesia-like symptom (AIMs) score. Individuals with a total AIMs score of less than 10 were excluded from the test as not manifesting a dyskinesia-like symptom. The behavior was observed and evaluated before the drug evaluation date. The rats were assigned to each dosing group by using the 3 hour total dyskinesia-like symptom (AIMs) score, Locomotive behavior score, and rat body weight as indicators, which were used for evaluation of drugs. […]
After 4 hours from application, a levodopa containing solution was intraperitoneally administered to observe and evaluate the behavior. Individuals with 50% or more of the tape agent coming off during the test were excluded from analysis. […]
As in Example 2, a levodopa containing solution was repeated administered to 6-0HDA-lesioned rats for 3 weeks or longer to observe and evaluate the behavior. The behavior was observed and evaluated before the drug evaluation date. The rats were assigned to each dosing group by using the 3 hour dyskinesia-like symptom (AIMs) score, Locomotive behavior score, and rat body weight as indicators, which were used for evaluation of drugs. However, individuals with a total AIMs score of less than 10 were excluded from the test as lacking manifestation of a dyskinesia-like symptom. Individuals with a body weight deviating 10% or more from the mean body weight were also excluded from the test to minimize variation in the dosage for each individual. […]
After 4 hours, a levodopa containing solution was administered to observe and evaluate the behavior. […]
The prepared solution was used after injection into an ALZET® Osmotic Pump MODEL 2ML2 (4.53 μL/hour; DURECT) for releasing a drug solution at a stable rate for 2 weeks. […]
The behavior was observed and evaluated using the same method as Example 2. […] After 5 minutes, a levodopa containing solution was intraperitoneally administered, and the behavior was observed and evaluated. The results in the drawings are indicated in terms of mean value […] standard error. The test results were statistically analyzed by comparison with the solvent administration group by Steel test using the total dyskinesia-like symptom (AIMs) score in 3 hours and total dyskinesia-like symptom score in 100 to 180 minutes as parameters. * indicates p<0.05, meaning that there is a significant difference.
The behavior was observed and evaluated using the same method in Example 2. […] The test results were statistically analyzed by comparison with the solvent administration group by Steel test by using the total dyskinesia-like symptom (AIMs) score in 3 hours and total dyskinesia-like symptom score in 100 to 180 minutes as parameters.

[3] = system: rat Vogel conflict test model; assay: Anxiolytic action in rat Vogel conflict test model; conditions: effect on PD-LID evaluated in 6-OHDA-lesioned rats
Method: The anxiolytic action was evaluated using a rat Vogel conflict test model, and the effect on PD-LID was evaluated in 6-0HDA-lesioned rats.

[4] = system: PD-LID rat model; assay: Dyskinesia-like symptom (AIMs) score in PD-LID rat model
[5] = continuous subcutaneous infusion 1.25 mg/kg/hour, vs solvent
[6] = oral 6.7 mg/kg as free form (10 mg/kg as citrate)
[7] = oral 67 mg/kg as free form (100 mg/kg as citrate)
[8] = transdermal condition 1, 37 mg/kg as free form
[9] = transdermal condition 2 (stripping), 45 mg/kg as free form

O=C1[C@@H]2[C@H]3CC[C@H](C3)[C@@H]2C(=O)N1CCCCN1CCN(c2ncccn2)CC1 [tandospirone, (1R,2S,3R,4S)—N-[4-{4-(pyrimidine-2-yl)piperadine-1-yl}butyl]-2,3-bicyclo[2.2.1]heptanedicarboximide]
(iii) Duration of action of levodopa without dyskinesia symptom (ON time without dyskinesia) ([1]; oral 6.7 mg/kg as free form (10 mg/kg as citrate), vs solvent group): Ineffective
(iii) Duration of action of levodopa without dyskinesia symptom (ON time without dyskinesia) ([1]; oral 20 mg/kg as free form (30 mg/kg as citrate), vs solvent group): Ineffective
(iii) Duration of action of levodopa without dyskinesia symptom (ON time without dyskinesia) ([1]; transdermal condition 1 (no stripping), 37 mg/kg as free form, 180 min, prolongation vs placebo tape): 21.7 min
(iii) Duration of action of levodopa without dyskinesia symptom (ON time without dyskinesia) ([1]; transdermal condition 2 (stripping), 45 mg/kg as free form, 180 min, prolongation vs placebo tape): 77.8 min
total dyskinesia-like symptom score in 100 to 180 minutes [2, 5]: significant improvement
dyskinesia-like symptoms (total AIMs score in 3 hours) ([2]; continuous subcutaneous infusion 0.05, 0.25, 1.25 mg/kg/hour, levodopa 4 hours after pump implant, vs solvent): dose-dependently improved dyskinesia-like symptoms
anxiolytic action compared with effect on PD-LID [3]: exerted at the same dosage
dyskinesia-like symptoms (total AIMs score in 3 hours) [4, 5]: significant improvement
(i) Degree of improvement in indicator of dyskinesia symptom (total AIMs score in 3 hours, solvent minus tandospirone group) [4, 6]: Ineffective
(ii) Indicator of rebound symptom of dyskinesia (total dyskinesia-like symptom score in 100 to 180 minutes, solvent minus tandospirone group) [4, 6]: No effect
(i) Degree of improvement in indicator of dyskinesia symptom (total AIMs score in 3 hours, solvent minus tandospirone group) ([4]; oral 20 mg/kg as free form (30 mg/kg as citrate)): Ineffective
(ii) Indicator of rebound symptom of dyskinesia (total dyskinesia-like symptom score in 100 to 180 minutes, solvent minus tandospirone group) ([4]; oral 20 mg/kg as free form (30 mg/kg as citrate), experiment printed as (FIG. 7)): −9.1
(ii) Indicator of rebound symptom of dyskinesia (total dyskinesia-like symptom score in 100 to 180 minutes, solvent minus tandospirone group) ([4]; oral 20 mg/kg as free form (30 mg/kg as citrate), experiment printed as (FIGS. 8A-8B)): −8.5
(i) Degree of improvement in indicator of dyskinesia symptom (total AIMs score in 3 hours, solvent minus tandospirone group) [4, 7]: Ineffective
(ii) Indicator of rebound symptom of dyskinesia (total dyskinesia-like symptom score in 100 to 180 minutes, solvent minus tandospirone group) [4, 7]: −10.1
(i) Degree of improvement in indicator of dyskinesia symptom (total AIMs score in 3 hours, placebo minus tandospirone group) [4, 8]: 17.7
(ii) Indicator of rebound symptom of dyskinesia (total dyskinesia-like symptom score in 100 to 180 minutes, placebo minus tandospirone group) [4, 8]: No effect
(i) Degree of improvement in indicator of dyskinesia symptom (total AIMs score in 3 hours, placebo minus tandospirone group) [4, 9]: 27.1
(ii) Indicator of rebound symptom of dyskinesia (total dyskinesia-like symptom score in 100 to 180 minutes, placebo minus tandospirone group) [4, 9]: No effect

c1cnc(N2CCNCC2)nc1 [1-PP dihydrochloride, 1-(2-Pyrimidyl)piperazine]
total dyskinesia-like symptom (AIMs) score in 3 hours ([2]; subcutaneous 10 mg/kg): significant change in the total AIMs score was not found
total dyskinesia-like symptom (AIMs) score in 3 hours ([2]; subcutaneous 30 mg/kg): significant change in the total AIMs score was not found
total dyskinesia-like symptom score in 100 to 180 minutes ([4]; subcutaneous 10 or 30 mg/kg, vs solvent group): increasing trend in the total AIMs score, albeit not significant
